What was measured:
DU-145 = assay: Anticancer activity against human DU145 cells; type: functional
MCF7 [1] = assay: Anticancer activity against human MCF7 cells; type: functional
NCI/ADR-RES = assay: Anticancer activity against human NCI/ADR-RES cells; type: functional
MDA-MB-231 = assay: Anticancer activity against human MDA-MB-231 cells; type: functional
Hs-578T = assay: Anticancer activity against human HS578T cells; type: functional
MDA-MB-435 = assay: Anticancer activity against human MDA-MB-435 cells; type: functional
BT-549 [2] = assay: Anticancer activity against human BT549 cells; type: functional
T47D [3] = assay: Anticancer activity against human T47D cells; type: functional
MDA-MB-468 = assay: Anticancer activity against human MDA-MB-468 cells; type: functional
MCF7 [4] = assay: Growth inhibition of human MCF7 cells at 10 uM relative to control; type: functional
T47D [5] = assay: Growth inhibition of human T47D cells at 10 uM relative to control; type: functional
HOP-92 [6] = assay: Growth inhibition of human HOP92 cells at 10 uM relative to control; type: functional
HCT-116 [7] = assay: Growth inhibition of human HCT116 cells at 10 uM relative to control; type: functional
HT-29 [8] = assay: Growth inhibition of human HT29 cells at 10 uM relative to control; type: functional
MOLT-4 [9] = assay: Growth inhibition of human MOLT4 cells at 10 uM relative to control; type: functional
[10] = Growth inhibition of human HL60(TB) cells at 10 uM relative to control; type: functional, HL-60(TB); details: HL-60
CAKI-1 [11] = assay: Growth inhibition of human CAKI1 cells at 10 uM relative to control; type: functional
786-0 [12] = assay: Growth inhibition of human 786-0 cells at 10 uM relative to control; type: functional
UACC-257 [13] = assay: Growth inhibition of human UACC257 cells at 10 uM relative to control; type: functional
SK-MEL-28 [14] = assay: Growth inhibition of human SK-MEL-28 cells at 10 uM relative to control; type: functional
SF-295 [15] = assay: Growth inhibition of human SF295 cells at 10 uM relative to control; type: functional
SNB-75 [16] = assay: Growth inhibition of human SNB75 cells at 10 uM relative to control; type: functional
CCRF-CEM [17] = assay: Anticancer activity against human CCRF-CEM cells; type: functional
[18] = Anticancer activity against human HL60(TB) cells; type: functional; details: HL-60
K562 = assay: Anticancer activity against human K562 cells; type: functional
MOLT-4 [19] = assay: Anticancer activity against human MOLT4 cells; type: functional
RPMI-8226 = assay: Anticancer activity against human RPMI8226 cells; type: functional
A549 [20] = assay: Anticancer activity against human A549 cells; type: functional
EKVX = assay: Anticancer activity against human EKVX cells; type: functional
HOP-62 = assay: Anticancer activity against human HOP62 cells; type: functional
HOP-92 [21] = assay: Anticancer activity against human HOP92 cells; type: functional
NCI-H226 = assay: Anticancer activity against human NCI-H226 cells; type: functional
NCI-H23 = assay: Anticancer activity against human NCI-H23 cells; type: functional
NCI-H322M = assay: Anticancer activity against human NCI-H322M cells; type: functional
NCI-H460 = assay: Anticancer activity against human NCI-H460 cells; type: functional
NCI-H522 = assay: Anticancer activity against human NCI-H522 cells; type: functional
COLO 205 = assay: Anticancer activity against human COLO205 cells; type: functional
HCC 2998 = assay: Anticancer activity against human HCC2998 cells; type: functional
HCT-116 [22] = assay: Anticancer activity against human HCT116 cells; type: functional
HCT-15 = assay: Anticancer activity against human HCT15 cells; type: functional
HT-29 [23] = assay: Anticancer activity against human HT29 cells; type: functional
KM12 = assay: Anticancer activity against human KM12 cells; type: functional
SW-620 = assay: Anticancer activity against human SW620 cells; type: functional
SF-268 = assay: Anticancer activity against human SF268 cells; type: functional
SF-295 [24] = assay: Anticancer activity against human SF295 cells; type: functional
SF-539 = assay: Anticancer activity against human SF539 cells; type: functional
SNB-19 = assay: Anticancer activity against human SNB19 cells; type: functional
SNB-75 [25] = assay: Anticancer activity against human SNB75 cells; type: functional
U-251 = assay: Anticancer activity against human U251 cells; type: functional
LOX IMVI = assay: Anticancer activity against human LOX IMVI cells; type: functional
Malme-3M = assay: Anticancer activity against human MALME-3M cells; type: functional
M14 = assay: Anticancer activity against human M14 cells; type: functional
SK-MEL-28 [26] = assay: Anticancer activity against human SK-MEL-28 cells; type: functional
SK-MEL-5 = assay: Anticancer activity against human SK-MEL-5 cells; type: functional
UACC-257 [27] = assay: Anticancer activity against human UACC257 cells; type: functional
UACC-62 = assay: Anticancer activity against human UACC62 cells; type: functional
IGROV-1 = assay: Anticancer activity against human IGROV1 cells; type: functional
OVCAR-3 = assay: Anticancer activity against human OVCAR-3 cells; type: functional
OVCAR-4 = assay: Anticancer activity against human OVCAR4 cells; type: functional
OVCAR-5 = assay: Anticancer activity against human OVCAR5 cells; type: functional
OVCAR-8 = assay: Anticancer activity against human OVCAR8 cells; type: functional
SK-OV-3 = assay: Anticancer activity against human SKOV3 cells; type: functional
786-0 [28] = assay: Anticancer activity against human 786-0 cells; type: functional
A498 = assay: Anticancer activity against human A498 cells; type: functional
ACHN = assay: Anticancer activity against human ACHN cells; type: functional
CAKI-1 [29] = assay: Anticancer activity against human CAKI1 cells; type: functional
SN12C = assay: Anticancer activity against human SN12C cells; type: functional
TK-10 = assay: Anticancer activity against human TK10 cells; type: functional
UO-31 = assay: Anticancer activity against human UO31 cells; type: functional
PC-3 = assay: Anticancer activity against human PC3 cells; type: functional
A549 [30] = assay: Growth inhibition of human A549 cells at 10 uM relative to control; type: functional
CCRF-CEM [31] = assay: Growth inhibition of human CCRF-CEM cells at 10 uM relative to control; type: functional
BT-549 [32] = assay: Antiproliferative activity against human BT549 cells after 72 hrs by alamar blue assay; type: functional, cell-based; details: BT-549, 72 h
BT-20 = assay: Antiproliferative activity against human BT20 cells after 72 hrs by Alamar Blue assay; type: functional, cell-based; details: BT-20, 72 h
SW480 = assay: Antiproliferative activity against human SW480 cells after 72 hrs by Alamar Blue assay; type: functional, cell-based; details: SW480, 72 h
Jurkat = assay: Antiproliferative activity against human Jurkat cells after 72 hrs by Alamar Blue assay; type: functional, cell-based

O=C1CC(C(F)(F)F)Cc2nc3c(Br)cc(Br)cc3cc21 (stereo unspecified)
GI50 (DU-145): 4.13 µM
GI50 (MCF7 [1]): 0.13 µM
GI50 (NCI/ADR-RES): 2.55 µM
GI50 (MDA-MB-231): 5.89 µM
GI50 (Hs-578T): 16.3 µM
GI50 (MDA-MB-435): 1.56 µM
GI50 (BT-549 [2]): 4.63 µM
GI50 (T47D [3]): 3.55 µM
GI50 (MDA-MB-468): 5.11 µM
inhibition at 10 µM (MCF7 [4]): 41%
inhibition at 10 µM (T47D [5]): 66%
inhibition at 10 µM (HOP-92 [6]): 57%
inhibition at 10 µM (HCT-116 [7]): 64%
inhibition at 10 µM (HT-29 [8]): 77%
inhibition at 10 µM (MOLT-4 [9]): 31%
inhibition at 10 µM [10]: 58%
inhibition at 10 µM (CAKI-1 [11]): 44%
inhibition at 10 µM (786-0 [12]): 54%
inhibition at 10 µM (UACC-257 [13]): 39%
inhibition at 10 µM (SK-MEL-28 [14]): 40%
inhibition at 10 µM (SF-295 [15]): 61%
inhibition at 10 µM (SNB-75 [16]): 76%
GI50 (CCRF-CEM [17]): 21.9 µM
GI50 [18]: 2.94 µM
GI50 (K562): 6.23 µM
GI50 (MOLT-4 [19]): 20.8 µM
GI50 (RPMI-8226): 4.32 µM
GI50 (A549 [20]): 4.65 µM
GI50 (EKVX): 3.54 µM
GI50 (HOP-62): 4.52 µM
GI50 (HOP-92 [21]): 11.2 µM
GI50 (NCI-H226): 10.7 µM
GI50 (NCI-H23): 3.14 µM
GI50 (NCI-H322M): 6.26 µM
GI50 (NCI-H460): 3.1 µM
GI50 (NCI-H522): 11.1 µM
GI50 (COLO 205): 3.23 µM
GI50 (HCC 2998): 2.6 µM
GI50 (HCT-116 [22]): 4.03 µM
GI50 (HCT-15): 3.35 µM
GI50 (HT-29 [23]): 4.42 µM
GI50 (KM12): 2.02 µM
GI50 (SW-620): 15.7 µM
GI50 (SF-268): 4.35 µM
GI50 (SF-295 [24]): 2.96 µM
GI50 (SF-539): 2.85 µM
GI50 (SNB-19): 11.3 µM
GI50 (SNB-75 [25]): 1.46 µM
GI50 (U-251): 11.9 µM
GI50 (LOX IMVI): 19 µM
GI50 (Malme-3M): 7.15 µM
GI50 (M14): 5.47 µM
GI50 (SK-MEL-28 [26]): 8.98 µM
GI50 (SK-MEL-5): 5.03 µM
GI50 (UACC-257 [27]): 16.1 µM
GI50 (UACC-62): 9.87 µM
GI50 (IGROV-1): 1.29 µM
GI50 (OVCAR-3): 1.79 µM
GI50 (OVCAR-4): 6.49 µM
GI50 (OVCAR-5): 1.91 µM
GI50 (OVCAR-8): 26 µM
GI50 (SK-OV-3): 7.55 µM
GI50 (786-0 [28]): 8.12 µM
GI50 (A498): 2.69 µM
GI50 (ACHN): 17.5 µM
GI50 (CAKI-1 [29]): 5.03 µM
GI50 (SN12C): 8.82 µM
GI50 (TK-10): 7.89 µM
GI50 (UO-31): 3.86 µM
GI50 (PC-3): 5.75 µM

Cc1c2c(nc3cc4c(cc13)OCO4)CC(C(F)(F)F)CC2=O (stereo unspecified)
inhibition at 10 µM (MCF7 [4]): < 20%
inhibition at 10 µM (T47D [5]): < 20%
inhibition at 10 µM (HOP-92 [6]): < 20%
inhibition at 10 µM (A549 [30]): 67%
inhibition at 10 µM (HCT-116 [7]): < 20%
inhibition at 10 µM (HT-29 [8]): < 20%
inhibition at 10 µM (MOLT-4 [9]): < 20%
inhibition at 10 µM [10]: < 20%
inhibition at 10 µM (CCRF-CEM [31]): < 20%
inhibition at 10 µM (CAKI-1 [11]): < 20%
inhibition at 10 µM (786-0 [12]): < 20%
inhibition at 10 µM (UACC-257 [13]): < 20%
inhibition at 10 µM (SK-MEL-28 [14]): < 20%
inhibition at 10 µM (SF-295 [15]): 32%
inhibition at 10 µM (SNB-75 [16]): 25%

O=C1CC(C(F)(F)F)Cc2nc3ccc(Cl)cc3c(-c3ccccc3)c21 (stereo unspecified)
IC50 (BT-549 [32]): 16.1 µM
IC50 (BT-20): 22.1 µM
IC50 (SW480): 28.4 µM
IC50 (Jurkat): 12.3 µM
inhibition at 10 µM (MCF7 [4]): < 20%
inhibition at 10 µM (T47D [5]): < 20%
inhibition at 10 µM (HOP-92 [6]): 37%
inhibition at 10 µM (A549 [30]): 80%
inhibition at 10 µM (HCT-116 [7]): 25%
inhibition at 10 µM (HT-29 [8]): < 20%
inhibition at 10 µM (CCRF-CEM [31]): < 20%
inhibition at 10 µM (CAKI-1 [11]): 66%
inhibition at 10 µM (786-0 [12]): < 20%
inhibition at 10 µM (UACC-257 [13]): 40%
inhibition at 10 µM (SK-MEL-28 [14]): < 20%
inhibition at 10 µM (SF-295 [15]): 48%
inhibition at 10 µM (SNB-75 [16]): < 20%

O=C1CC(C(F)(F)F)Cc2nc3ccc(Cl)cc3c(-c3ccccc3Cl)c21 (stereo unspecified)
IC50 (BT-549 [32]): 39.3 µM
IC50 (BT-20): 42.1 µM
IC50 (SW480): 21.3 µM
IC50 (Jurkat): 87.6 µM
inhibition at 10 µM (MCF7 [4]): < 20%
inhibition at 10 µM (T47D [5]): < 20%
inhibition at 10 µM (HOP-92 [6]): 38%
inhibition at 10 µM (A549 [30]): 50%
inhibition at 10 µM (HCT-116 [7]): 38%
inhibition at 10 µM (HT-29 [8]): < 20%
inhibition at 10 µM (MOLT-4 [9]): 46%
inhibition at 10 µM [10]: < 20%
inhibition at 10 µM (CCRF-CEM [31]): 60%
inhibition at 10 µM (CAKI-1 [11]): < 20%
inhibition at 10 µM (786-0 [12]): < 20%
inhibition at 10 µM (UACC-257 [13]): < 20%
inhibition at 10 µM (SK-MEL-28 [14]): < 20%
inhibition at 10 µM (SF-295 [15]): < 20%
inhibition at 10 µM (SNB-75 [16]): < 20%

— ChEMBL document CHEMBL1157501, “Novel fluorinated acridone derivatives. Part 1: synthesis and evaluation as potential anticancer agents” (Bioorg Med Chem Lett, 2008)
